Data set [1] concerns HeLa cells. Kind of data set: Cell proliferation and cell death after 72 hr treatment, trypan blue exclusion. As to conditions: CPE formulation, lots EM1001 and EM1002. The format is cell-based, human. The protocol:
M4N in 10% (w/v) HP-β-CD and 25% (v/v) PEG 300 (hereafter, the “CPE formulation”), M4N in 30% (w/v) HP-β-CD and 25% (v/v) PEG 300 (hereafter, the “CPE 25/30 formulation”) and M4N in 27% (w/v) HP-β-CD and 33% (v/v) PEG 300 (hereafter, the “CPE 33/27 formulation”) was tested for their effects on cell death and proliferation on two different tumor cell lines: HeLa, an HPV-18 positive human cervical cancer cell line, and C-33A, an HPV-negative human cervical cancer cell line. M4N in DMSO was also tested in parallel. Both tumor cell lines were treated with increasing amounts of M4N: 0 μM, 20 μM, 40 μM, 60 μM and 80 μM, for 72 hr with the DMSO or the CPE formulation. […] After 72 hr of treatment or no treatment, the total number of cells and the number of live cells in each sample were counted, using the trypan blue exclusion method. The cell proliferation rate and the percentage of dead cells in each sample were analyzed. […]
Various lots of M4N were tested to show the effectiveness of the drug of different lots. […] After 72 hr of treatment or no treatment, the total number of cells and the number of live cells in each sample were counted, using the trypan blue exclusion method. The cell proliferation rate and the percentage of dead cells in each sample were analyzed.

Data set [2] in a line: 40 mg/mL M4N/PEG 300 stability, RP-HPLC analysis. Format: physicochemical. The note with it: for M4N: 40 mg/mL M4N/PEG 300. As to the method: The stability of 40 mg/mL M4N dissolved in 100% PEG 300 was evaluated up to 24 hours incubation at 30° C., 45° C. and 60° C. A stock 40 mg/mL M4N in PEG 300 was prepared at 60° C., following the procedure set forth in Example 18. Subsequently, aliquots were removed and incubated at the appropriate temperature. Samples were rotated at 450 rpm during the entire course of incubation. Visual observations and RP-HPLC data were collected throughout. […] The formation of crystals coincided with a loss of soluble M4N (Table 30). The 40 mg/mL M4N/PEG 300 samples incubated at 45° C. and 60° C. were stable after 24 hours incubation as assessed by visual observations and RP-HPLC analysis (Tables 29 and 30).

The conditions of data set [3]: dog, in vivo, iv, 75 mg/kg.
A short description of data set [4]: Oral fed/fasted IV/oral pharmacokinetic comparison of M4N formulations, single 75 mg/kg dose. The note with it: dogs, single 75 mg/kg oral or IV.

With `COc1ccc(C[C@@H](C)[C@@H](C)Cc2ccc(OC)c(OC)c2)cc1OC` [Formulation M4N, meso-1,4-bis(3,4-dimethoxyphenyl)-2,3-dimethylbutane], in data set [1], the “effectiveness of different lots of M4N” value was “remains the same”. In data set [2] (40 mg/mL M4N/PEG 300, 30° C., 45° C. and 60° C.), the “amount or types of impurities peaks” value is on record as “No changes”. The “stability by visual observations and RP-HPLC analysis” value is recorded as “stable” in data set [2] (40 mg/mL M4N/PEG 300, 24 hours at 45° C.) and “stable” in data set [2] (40 mg/mL M4N/PEG 300, 24 hours at 60° C.). For the same compound, the “M4N” value in data set [2] (30° C., 0 hours) amounted to 39.5 mg/mL; in data set [2] (30° C., 2 hours), 40.8 mg/mL; in data set [2] (30° C., 6 hours), 40.6 mg/mL; in data set [2] (30° C., 24 hours), 37.4 mg/mL; in data set [2] (45° C., 2 hours), 40.4 mg/mL; in data set [2] (45° C., 6 hours) it was 39.8 mg/mL. Besides, the “M4N” value was 40.6 mg/mL in data set [2] (45° C., 24 hours); 39.1 mg/mL in data set [2] (60° C., 2 hours); 39.2 mg/mL in data set [2] (60° C., 6 hours); 39.2 mg/mL in data set [2] (60° C., 24 hours). The Clinical observations result in data set [3] was “diarrhea, emesis, and ataxia”. Besides, the survival entry in data set [4] is “All animals survived”.

These data come from patent US20090022803A1, “Oral Formulations For Delivery of Catecholic Butanes Including Ndga Compounds” (priority 2005, published 2009).
